# ChEMBL document CHEMBL4304804, “Synthesis and biological evaluation of calycanthaceous alkaloid analogs” (Bioorg Med Chem, 2019)
# pIC50: −log10 of the molar value. The source made the active and inactive calls. The calls are words filed in the database; no cut-off is given here.
# Assays:
# Verticillium dahliae = test: Antifungal activity against Verticillium dahliae assessed as reduction in fungal cell growth incubated for 48 hrs by serial dilution method; format: functional
# [1] = system: Fusarium oxysporum f. sp. vasinfectum; test: Antifungal activity against Fusarium oxysporum sp. vasinfectum assessed as reduction in fungal cell growth incubated for 48 hrs by serial dilution method; format: functional
# Cytospora = test: Antifungal activity against Cytospora juglandis assessed as reduction in fungal cell growth incubated for 48 hrs by serial dilution method; format: functional
# Aspergillus flavus = test: Antifungal activity against Aspergillus flavus assessed as reduction in fungal cell growth incubated for 48 hrs by serial dilution method; format: functional
# Penicillium citrinum = test: Antifungal activity against Penicillium citrinum assessed as reduction in fungal cell growth incubated for 48 hrs by serial dilution method; format: functional
# Fusarium oxysporum = test: Antifungal activity against Fusarium oxysporum assessed as reduction in fungal cell growth incubated for 48 hrs by serial dilution method; format: functional
# [2] = system: Colletotrichum orbiculare; test: Antifungal activity against Colletotrichum orbiculare assessed as reduction in fungal cell growth incubated for 48 hrs by serial dilution method; format: functional
# Aspergillus niger = test: Antifungal activity against Aspergillus niger assessed as reduction in fungal cell growth incubated for 48 hrs by serial dilution method; format: functional
# Curvularia lunata = test: Antifungal activity against Curvularia lunata assessed as reduction in fungal cell growth incubated for 48 hrs by serial dilution method; format: functional
# Escherichia coli = test: Antibacterial activity against Escherichia coli assessed as reduction in bacterial cell growth incubated for 24 hrs by filter paper assay; format: functional
# Pseudomonas aeruginosa = test: Antibacterial activity against Pseudomonas aeruginosa assessed as reduction in bacterial cell growth incubated for 24 hrs by filter paper assay; format: functional
# Ralstonia solanacearum = test: Antibacterial activity against Ralstonia solanacearum assessed as reduction in bacterial cell growth incubated for 24 hrs by filter paper assay; format: functional
# Bacillus cereus = test: Antibacterial activity against Bacillus cereus assessed as reduction in bacterial cell growth incubated for 24 hrs by filter paper assay; format: functional
# Staphylococcus aureus = test: Antibacterial activity against Staphylococcus aureus assessed as reduction in bacterial cell growth incubated for 24 hrs by filter paper assay; format: functional
# Candida = test: Antifungal activity against […] assessed as reduction in fungal cell growth incubated for 48 hrs by serial dilution method; format: functional
# Cryptococcus neoformans = test: Antifungal activity against Cryptococcus neoformans assessed as reduction in fungal cell growth incubated for 48 hrs by serial dilution method; format: functional
# Candida tropicalis = test: Antifungal activity against Candida tropicalis assessed as reduction in fungal cell growth incubated for 48 hrs by serial dilution method; format: functional
# Acetylcholinesterase = Acetylcholinesterase (Electrophorus electricus, UniProt O42275); test: Inhibition of electric eel AChE by Ellman's colorimetry
# Chain of Acetylcholinesterase (O42275 whole entry): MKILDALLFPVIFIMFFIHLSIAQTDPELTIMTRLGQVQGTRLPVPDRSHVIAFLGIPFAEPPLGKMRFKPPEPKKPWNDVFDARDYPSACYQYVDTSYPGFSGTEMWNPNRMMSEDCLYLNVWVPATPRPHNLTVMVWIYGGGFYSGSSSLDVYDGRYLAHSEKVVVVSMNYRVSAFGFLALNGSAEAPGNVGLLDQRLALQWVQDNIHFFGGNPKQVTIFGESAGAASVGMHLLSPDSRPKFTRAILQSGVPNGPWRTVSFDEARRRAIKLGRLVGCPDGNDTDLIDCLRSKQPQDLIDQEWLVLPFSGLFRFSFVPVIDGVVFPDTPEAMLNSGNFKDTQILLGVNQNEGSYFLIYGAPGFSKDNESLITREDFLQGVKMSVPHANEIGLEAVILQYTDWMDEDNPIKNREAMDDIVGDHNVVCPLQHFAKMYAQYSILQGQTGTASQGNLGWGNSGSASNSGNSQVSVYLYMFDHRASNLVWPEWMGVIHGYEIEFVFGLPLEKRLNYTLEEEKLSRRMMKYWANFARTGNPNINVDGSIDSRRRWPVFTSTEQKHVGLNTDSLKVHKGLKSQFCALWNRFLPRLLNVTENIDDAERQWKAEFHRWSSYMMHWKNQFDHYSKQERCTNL
SMILES,MIC (Verticillium dahliae),MIC [1],MIC (Cytospora),MIC (Aspergillus flavus),MIC (Penicillium citrinum),MIC (Fusarium oxysporum),MIC [2],MIC (Aspergillus niger),MIC (Curvularia lunata),MIC (Escherichia coli),MIC (Pseudomonas aeruginosa),MIC (Ralstonia solanacearum),MIC (Bacillus cereus),MIC (Staphylococcus aureus),MIC (Candida),MIC (Cryptococcus neoformans),MIC (Candida tropicalis),pIC50 (Acetylcholinesterase)
Cc1cccc(CN2c3ccccc3C3(Cc4cccc(C)c4)CCN(C(=O)Cc4ccccc4)C23)c1 (stereo unspecified),250 µg/mL,125 µg/mL,250 µg/mL,250 µg/mL,250 µg/mL,250 µg/mL,inactive,250 µg/mL,inactive,inactive,inactive,inactive,inactive,inactive,inactive,inactive,inactive,3.34
Cc1ccccc1CN1c2ccccc2C2(Cc3ccccc3C)CCN(C(=O)COc3ccccc3)C12 (stereo unspecified),250 µg/mL,inactive,250 µg/mL,250 µg/mL,125 µg/mL,250 µg/mL,250 µg/mL,250 µg/mL,inactive,inactive,inactive,inactive,250 µg/mL,inactive,250 µg/mL,inactive,250 µg/mL,3.10
Cc1cccc(C(=O)N2CCCC3(O)c4ccccc4N(C)C23)c1 (stereo unspecified),250 µg/mL,inactive,inactive,inactive,inactive,inactive,inactive,inactive,inactive,inactive,250 µg/mL,62.5 µg/mL,inactive,250 µg/mL,inactive,inactive,250 µg/mL,5.26
CCC(=O)N1CCC2(Cc3cccc(C)c3)c3ccccc3N(Cc3cccc(C)c3)C12 (stereo unspecified),250 µg/mL,inactive,62.5 µg/mL,250 µg/mL,inactive,125 µg/mL,250 µg/mL,125 µg/mL,250 µg/mL,250 µg/mL,inactive,inactive,31.2 µg/mL,62.5 µg/mL,250 µg/mL,inactive,250 µg/mL,6.04
CN1c2ccccc2C2(O)CCCN(C(=O)c3cccc(F)c3)C12 (stereo unspecified),250 µg/mL,inactive,inactive,inactive,inactive,inactive,inactive,inactive,inactive,250 µg/mL,250 µg/mL,250 µg/mL,inactive,inactive,inactive,inactive,inactive,6.47
Cc1cccc(CN2c3ccccc3C3(Cc4cccc(C)c4)CCN(C(=O)CCc4ccccc4)C23)c1 (stereo unspecified),inactive,62.5 µg/mL,250 µg/mL,250 µg/mL,inactive,250 µg/mL,inactive,inactive,inactive,inactive,inactive,inactive,inactive,inactive,inactive,inactive,inactive,8.40
Cc1cccc(CN2c3ccccc3C3(Cc4cccc(C)c4)CCN(C(=O)C(F)(F)F)C23)c1 (stereo unspecified),inactive,inactive,250 µg/mL,250 µg/mL,inactive,250 µg/mL,inactive,inactive,inactive,inactive,inactive,inactive,inactive,inactive,inactive,inactive,inactive,5.47
Cc1cccc(CN2c3ccccc3C3(Cc4cccc(C)c4)CCN(C(=O)c4ccccc4C)C23)c1 (stereo unspecified),7.81 µg/mL,125 µg/mL,125 µg/mL,250 µg/mL,inactive,125 µg/mL,250 µg/mL,250 µg/mL,62.5 µg/mL,inactive,inactive,125 µg/mL,125 µg/mL,inactive,250 µg/mL,inactive,250 µg/mL,3.95
CCCCCCC(=O)N1CCC2(Cc3cccc(C)c3)c3ccccc3N(Cc3cccc(C)c3)C12 (stereo unspecified),125 µg/mL,250 µg/mL,62.5 µg/mL,250 µg/mL,250 µg/mL,125 µg/mL,250 µg/mL,250 µg/mL,62.5 µg/mL,250 µg/mL,125 µg/mL,125 µg/mL,125 µg/mL,250 µg/mL,250 µg/mL,inactive,250 µg/mL,4.74
CCCCC(=O)N1CCCC2(O)c3ccccc3N(C)C12 (stereo unspecified),250 µg/mL,inactive,inactive,inactive,inactive,inactive,inactive,inactive,inactive,250 µg/mL,250 µg/mL,62.5 µg/mL,inactive,125 µg/mL,inactive,inactive,inactive,4.56
CCCCCC(=O)N1CCC2(Cc3cccc(C)c3)c3ccccc3N(Cc3cccc(C)c3)C12 (stereo unspecified),15.6 µg/mL,inactive,125 µg/mL,250 µg/mL,250 µg/mL,125 µg/mL,250 µg/mL,250 µg/mL,inactive,inactive,125 µg/mL,250 µg/mL,250 µg/mL,inactive,250 µg/mL,inactive,250 µg/mL,3.85
COc1ccc(C(=O)N2CCC3(Cc4ccccc4C)c4ccccc4N(Cc4ccccc4C)C23)cc1 (stereo unspecified),250 µg/mL,inactive,250 µg/mL,250 µg/mL,inactive,250 µg/mL,inactive,250 µg/mL,inactive,inactive,inactive,inactive,inactive,inactive,inactive,inactive,inactive,3.90
